The test concerns THP-1 cells. The experiment in a line: hTHP-1 assay: gramicidin-stimulated IL-1β detection in PMA-treated THP-1 cells. It is filed as cell-based, human. Conditions: Table B2, 10% FBS.

As usually defined, the IC50 is the concentration that inhibits the measured activity by half. A low value points to inhibition by little substance.

On to `C[C@@H]1CCc2c1nc1c(c2NC(=O)N=S(N)(=O)c2ccn(C3CC3)n2)CCC1` (single isomer, unassigned) [Example 888, (R) or (S)-1-cyclopropyl-N′-(((R)-3-methyl-1,2,3,5,6,7-hexahydrodicyclopenta [b,e]pyridin-8-yl)carbamoyl)-1H-pyrazole-3-sulfonimidamide], for which the IC50 reads like this: (class symbol) 40 to 200 nM; (numeric value) 49.4 nM.
For `NS(=O)(=NC(=O)Nc1c2c(nc(C(F)(F)F)c1C1CC1)CCC2)c1nn(C2CC2)cc1F` (single isomer, unassigned) [Example 880, (R) or (S)-1-cyclopropyl-N′-((3-cyclopropyl-2-(trifluoromethyl)-6,7-dihydro-5H-cyclopenta [b]pyridin-4-yl)carbamoyl)-4-fluoro-1H-pyrazole-3-sulfonimidamide] the same measures were 40 to 200 nM and 53.9 nM.
For `C[C@@H](O)Cn1cc(F)c(S(N)(=O)=NC(=O)Nc2c3c(nc4c2CCC42CC2)CCC3)n1` (single isomer, unassigned) [Example 892, (R) or (S)-4-fluoro-1-((R)-2-hydroxypropyl)-N′-((1′,5′,6′,7′-tetrahydro-2′H-spiro [cyclopropane-1,3′-dicyclopenta[b,e]pyridin]-8′-yl)carbamoyl)-1H-pyrazole-3-sulfonimidamide], the IC50 (class symbol) was 8 to 40 nM and 12.7 nM corresponded to half-maximal inhibition (numeric value) (IC50).
On the same counts, the results for `C[C@@H]1CCc2c1nc1c(c2NC(=O)N=S(N)(=O)c2ccn(C3CC3)n2)CCC1` (single isomer, unassigned) [Example 889, (S) or (R)-1-cyclopropyl-N′-(((R)-3-methyl-1,2,3,5,6,7-hexahydrodicyclopenta [b,e]pyridin-8-yl)carbamoyl)-1H-pyrazole-3-sulfonimidamide] are 1000 to 5000 nM and 1670 nM.
For `NS(=O)(=NC(=O)Nc1c2c(nc3c1CCC3)CCC2)c1ccn(C2CC2)n1` (single isomer, unassigned) [Example 887, (S) or (R)-1-cyclopropyl-N′-((1,2,3,5,6,7-hexahydrodicyclopenta [b,e]pyridin-8-yl)carbamoyl)-1H-pyrazole-3-sulfonimidamide] the same measures were 5000 to 30000 nM and 5880 nM.
On to `NS(=O)(=NC(=O)Nc1c2c(nc(C3CC3)c1C1CC1)CCC2)c1ccn(C2CC2)n1` (single isomer, unassigned) [Example 879, (S) or (R)-1-cyclopropyl-N′-((2,3-dicyclopropyl-6,7-dihydro-5H-cyclopenta[b]pyridin-4-yl)carbamoyl)-1H-pyrazole-3-sulfonimidamide], for which the IC50 by setting is: (class symbol) 1000 to 5000 nM; (numeric value) 4430 nM.
With `NS(=O)(=NC(=O)Nc1c2c(nc3c1CCC31CC1)CCC2)c1ccn(C2CC2)n1` (single isomer, unassigned) [Example 885, (S) or (R)-1-cyclopropyl-N′-((1′,5′,6′,7′-tetrahydro-2′H-spiro[cyclopropane-1,3′-dicyclopenta[b,e]pyridin]-8′-yl)carbamoyl)-1H-pyrazole-3-sulfonimidamide], the IC50 is, setting by setting: (class symbol) 1000 to 5000 nM; (numeric value) 2260 nM.
For `NS(=O)(=NC(=O)Nc1c2c(nc(C3CC3)c1C1CC1)CCC2)c1ccn(C2CC2)n1` (single isomer, unassigned) [Example 878, (R) or (S)-1-cyclopropyl-N′-((2,3-dicyclopropyl-6,7-dihydro-5H-cyclopenta[b]pyridin-4-yl)carbamoyl)-1H-pyrazole-3-sulfonimidamide] the same measures were 40 to 200 nM and 88 nM.
As to `NS(=O)(=NC(=O)Nc1c2c(nc3c1CCC3)CCC2)c1ccn(C2CC2)n1` (single isomer, unassigned) [Example 886, (R) or (S)-1-cyclopropyl-N′-((1,2,3,5,6,7-hexahydrodicyclopenta [b,e]pyridin-8-yl)carbamoyl)-1H-pyrazole-3-sulfonimidamide], the IC50 by setting is: (class symbol) 200 to 1000 nM; (numeric value) 270 nM.
For `C[C@@H](O)Cn1cc(F)c(S(N)(=O)=NC(=O)Nc2c3c(nc4c2CCC42CC2)CCC3)n1` (single isomer, unassigned) [Example 893, (S) or (R)-4-fluoro-1-((R)-2-hydroxypropyl)-N′-((1′,5′,6′,7′-tetrahydro-2′H-spiro [cyclopropane-1,3′-dicyclopenta[b,e]pyridin]-8′-yl)carbamoyl)-1H-pyrazole-3-sulfonimidamide] the same measures were 200 to 1000 nM and 679 nM.
Consider `NS(=O)(=NC(=O)Nc1c2c(nc(C3CC3)c1C1CC1)CCC2)c1nn(C2CC2)cc1F` (single isomer, unassigned) [Example 883, (S) or (R)-1-cyclopropyl-N′-((2,3-dicyclopropyl-6,7-dihydro-5H-cyclopenta[b]pyridin-4-yl)carbamoyl)-4-fluoro-1H-pyrazole-3-sulfonimidamide], for which the IC50 reads like this: (class symbol) 1000 to 5000 nM; (numeric value) 1250 nM.
For `Cc1c(C(F)(F)F)nc2c(c1NC(=O)N=S(N)(=O)c1ccn(C3CC3)n1)CCC2` (single isomer, unassigned) [Example 890, (R) or (S)-1-cyclopropyl-N′-((3-methyl-2-(trifluoromethyl)-6,7-dihydro-5H-cyclopenta [b]pyridin-4-yl)carbamoyl)-1H-pyrazole-3-sulfonimidamide] the same measures were 40 to 200 nM and 108 nM.
Take `NS(=O)(=NC(=O)Nc1c2c(nc3c1CCC31CC1)CCC2)c1ccn(C2CC2)n1` (single isomer, unassigned) [Example 884, (R) or (S)-1-cyclopropyl-N′-((1′,5′,6′,7′-tetrahydro-2′H-spiro[cyclopropane-1,3′-dicyclopenta[b,e]pyridin]-8′-yl)carbamoyl)-1H-pyrazole-3-sulfonimidamide]: the IC50 reads like this: (class symbol) 40 to 200 nM; (numeric value) 53.3 nM.
For `NS(=O)(=NC(=O)Nc1c2c(nc(C(F)(F)F)c1C1CC1)CCC2)c1nn(C2CC2)cc1F` (single isomer, unassigned) [Example 881, (S) or (R)-1-cyclopropyl-N′-((3-cyclopropyl-2-(trifluoromethyl)-6,7-dihydro-5H-cyclopenta [b]pyridin-4-yl)carbamoyl)-4-fluoro-1H-pyrazole-3-sulfonimidamide] the same measures were 1000 to 5000 nM and 1410 nM.
Take `C[C@H](O)Cn1cc(F)c(S(N)(=O)=NC(=O)Nc2c3c(nc4c2CCC42CC2)CCC3)n1` (single isomer, unassigned) [Example 896, (R) or (S)-4-fluoro-1-((S)-2-hydroxypropyl)-N′-((1′,5′,6′,7′-tetrahydro-2′H-spiro [cyclopropane-1,3′-dicyclopenta[b,e]pyridin]-8′-yl)carbamoyl)-1H-pyrazole-3-sulfonimidamide]: the IC50 by setting is: (class symbol) 8 to 40 nM; (numeric value) 13.6 nM.
